Laboratory results taken from the SangsterLogP compilation.

Test: method code SF-AS/HPLC, from DOI: 10.1039/a908863f

logP	Compound
1.94	C=CC(=O)Oc1ccccc1
3.08	C=CC(=O)OCCCCCCOC(=O)C=C
0.65	C=CC(=O)OCCOCCOCCOC(=O)C=C
6.1	C=CC(=O)OC(C)COc1ccc(C(C)(C)c2ccc(OCC(C)OC(=O)C=C)cc2)cc1 (stereo not drawn)
-0.3	C=CC(=O)OCCOCCO
2.5	C=CC(=O)OCC(C)(C)COC(=O)C=C
7.1	C=CC(=O)OCCCCCCCCCCCCCCCCCC
0.79	C=CC(=O)OCCOCCOC(=O)C=C
5.46	C=CC(=O)OCCCCCCCCCC
0.47	C=CC(=O)OCCOCCOCCOCCOC(=O)C=C

Compound	logP
C=CC(=O)OCC(CC)(COC(=O)C=C)COC(=O)C=C	2.75
C=CC(=O)OCC(COC(=O)C=C)(COC(=O)C=C)COC(=O)C=C	2.23
C=CC(=O)OCCCOC(=O)C=C	0.87
